Measurements: PMC13379236 (Cell reports, 2026)

Experiments:
[1] = test system: CUL5/RBX2 with ZYG11B-EloBC; assay type: binding, human
[2] = test system: CRL2^ZYG11B; test: MBP pull-down with E3 holoenzyme CRL2^ZYG11B; assay type: binding, human; conditions: MBP fusion on amylose resin, prey 1:1, 1 h, 4°C; SDS-PAGE, Coomassie
Experimental: Bacmids were generated in DH10Bac cells and transfected into Sf9 cells to produce recombinant baculovirus, which was amplified through two additional rounds. Four liters of Sf9 cells at 2 × 10 ^6 cells/mL were infected with amplified virus and harvested after 60 h. Cell pellets were resuspended in buffer B (50 mM Tris-HCl, 500 mM NaCl, 0.5 mM EDTA, 0.5 mM TCEP, and 1 mM PMSF) supplemented with protease inhibitors, lysed by sonication, and clarified by ultracentrifugation at 40,000 rpm for 1 h. The supernatant was incubated with Strep-Tactin Sepharose resin for 2 h, washed extensively with buffer B, and eluted with 20 mM HEPES, pH 7.5, 300 mM NaCl, 0.5 mM TCEP, and 10 mM D-desthiobiotin. The complex was further purified by size-exclusion chromatography in the same sizing buffer used for ZYG11B–EloBC.
To reconstitute the pentameric CRL2–ZYG11B complex (ZBCC), purified ZYG11B–EloBC and CUL2/Rbx1 complexes were mixed at a 1:1 molar ratio and incubated on ice for 30 min. […]
Peptides corresponding to […] and […] were appended to the N terminus of maltose-binding protein (MBP) and cloned into pET-28a containing an N-terminal His6 tag followed by a TEV protease cleavage site. […] Samples were analyzed by SDS-PAGE and Coomassie staining. Pulldown efficiency was quantified as the ratio of MBP–NLRP1 degron signal to ZYG11B signal in the same gel lane. […]

[3] = biological target: T1, ZYG11B-EloBC (Homo sapiens, UniProt Q9C0D3); test: MBP pull-down with substrate receptor module ZYG11B-EloBC; assay type: binding; conditions: MBP fusion on amylose resin, prey 1:1, 1 h, 4°C; SDS-PAGE, Coomassie
Experimental: Peptides corresponding to […] and […] were appended to the N terminus of maltose-binding protein (MBP) and cloned into pET-28a containing an N-terminal His6 tag followed by a TEV protease cleavage site. Fusion proteins were purified by Ni-NTA chromatography, digested with TEV protease, and passed over Ni-NTA resin again to remove TEV and the cleaved His6 tag. Final purification was performed by size-exclusion chromatography. The resulting proteins contained MBP fused to N-terminal Gly/N-degron overhangs. For pulldown experiments, approximately 100 μg MBP fusion protein was immobilized on 50 μL amylose resin and incubated with prey protein at a 1:1 molar ratio for 1 h at 4°C. Resin was washed three times, and bound proteins were eluted in sizing buffer supplemented with 20 mM maltose. Samples were analyzed by SDS-PAGE and Coomassie staining. Pulldown efficiency was quantified as the ratio of MBP–NLRP1 degron signal to ZYG11B signal in the same gel lane. […]
incubation of full-length Cyclin B1 without Gly/N-degron with ZYG11B–EloBC (top). SDS–PAGE analysis of the indicated fractions from the Superose 6 column (dashed lines) confirms complex formation (bottom) C, fluorescence anisotropy binding of ZYG11B-EloBC to indicated fluorescein-labeled peptides (left) and fitted equilibrium dissociation constants (right). […]

[4] = test system: NLRP1; conditions: treatment of cells with pan-CRL inhibitor; cited from earlier work
From the text: Human NLRP1 (NACHT, LRR, and PYD domains-containing protein 1) has recently been characterized as a substrate of CRL2 in complex with either ZYG11B or ZER1.[7] NLRP1 is an effector-triggered immunity (ETI) sensor of pathogen-encoded proteases, wherein cleavage of NLRP1 in mice and humans by specific bacterial or viral proteases results in inflammasome formation, which leads to subsequent release of pro-inflammatory cytokines such as IL-1b and IL-18 and pyroptotic cell death.[7]-[10] The mechanism by which this occurs, termed functional degradation, depends on specific recognition, ubiquitinati ...

[5] = biological target: T1, ZYG11B-EloBC; assay type: binding

T1 sequence (Q9C0D3 whole entry, the tested form may be a part): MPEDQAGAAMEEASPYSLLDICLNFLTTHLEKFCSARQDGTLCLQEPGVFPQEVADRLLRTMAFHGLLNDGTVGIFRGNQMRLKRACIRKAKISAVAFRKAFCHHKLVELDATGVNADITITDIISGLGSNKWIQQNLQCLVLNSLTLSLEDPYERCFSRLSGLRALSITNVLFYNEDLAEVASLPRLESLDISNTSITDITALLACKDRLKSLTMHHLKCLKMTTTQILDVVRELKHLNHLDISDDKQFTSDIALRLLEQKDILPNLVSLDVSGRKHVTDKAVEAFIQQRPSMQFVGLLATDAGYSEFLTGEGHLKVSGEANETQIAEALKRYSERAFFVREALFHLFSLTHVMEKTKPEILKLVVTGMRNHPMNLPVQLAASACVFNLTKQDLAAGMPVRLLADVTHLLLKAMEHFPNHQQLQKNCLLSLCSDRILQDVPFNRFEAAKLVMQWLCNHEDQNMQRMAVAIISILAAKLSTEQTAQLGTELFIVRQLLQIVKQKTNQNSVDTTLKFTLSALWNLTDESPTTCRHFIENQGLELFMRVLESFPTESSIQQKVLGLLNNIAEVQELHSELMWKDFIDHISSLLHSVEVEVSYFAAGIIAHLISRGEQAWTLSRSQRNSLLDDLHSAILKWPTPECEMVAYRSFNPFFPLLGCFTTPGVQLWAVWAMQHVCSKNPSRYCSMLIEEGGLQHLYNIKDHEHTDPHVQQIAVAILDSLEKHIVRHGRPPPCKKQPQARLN
T1 sequence (Q15370 whole entry partner, the tested form may be a part): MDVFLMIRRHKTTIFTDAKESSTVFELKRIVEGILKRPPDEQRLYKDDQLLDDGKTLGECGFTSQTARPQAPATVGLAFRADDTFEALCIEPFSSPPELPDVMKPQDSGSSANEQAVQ
T1 sequence (Q15369 17-112 partner limits assumed): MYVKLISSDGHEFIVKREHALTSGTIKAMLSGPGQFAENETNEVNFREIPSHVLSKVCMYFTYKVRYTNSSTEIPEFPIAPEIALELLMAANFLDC

## GSERRVLRQLPDTSGRRWRE [Degron-20]
[1]
  amount of CUL5/RBX2 retained compared to CUL2/RBX1: reduced compared to CUL2/RBX1
[2]
  interaction with CRL2^ZYG11B: interacted
[3]
  interaction with ZYG11B-EloBC: interacted

## NS(=O)(=O)OC[C@@H]1C[C@@H](n2ccc3c(N[C@H]4CCc5ccccc54)ncnc32)C[C@@H]1O [MLN4924]
[4]
  effect on HRV-mediated activation of NLRP1: impairs HRV-mediated activation of NLRP1

## GSERRVLRQLPDTSG [chimera]
[5]
  co-purification / complex formation with ZYG11B-EloBC: copurified with ZYG11B-EloBC

## GSERRVLRQL [Degron-10]
[1]
  amount of CUL5/RBX2 retained compared to CUL2/RBX1: reduced compared to CUL2/RBX1
[2]
  interaction with CRL2^ZYG11B: interacted
[3]
  interaction with ZYG11B-EloBC: interacted
